Measured values reported in EP1037627B1, “USE OF 11-(3-DIMETHYLAMINOPROPYLIDENE)-6,11-DIHYDRODIBENZ[B,E]OXEPIN-2-ACETIC ACID AND OF PHARMACEUTICALLY ACCEPTABLE SALTS THEREOF FOR THE MANUFACTURE OF A MEDICAMENT FOR THE TREATMENT OF NON-[…] OPHTHALMIC INFLAMMATORY DISORDERS AND FOR THE PREVENTION OF OCULAR NEOVASCULARIZATION” (Alcon Laboratories, Inc., priority 1998, dated 2000).
“And” between values parts separate entries of the source, which are not always exact repeats. Identical values can stand only once. Counter-ions that a name gives are not always drawn. Like-named read-outs stand apart in the source and are kept apart here.

Key:
histamine H1-receptor = conditions: published values (Sharif et al. 1994; Yanni et al. 1997), read-out: H1 Binding Ki, cited from earlier work
[1] = system: IL-8 Secretion in Human Conjunctival Epithelial Cells; assay: Inhibition of histamine-stimulated IL-8 secretion in cultured human conjunctival epithelial cells (ELISA); type: cell-based; conditions: for IC50: Homo sapiens, read-out: IL-8 IC50
Description: (§1) Methods detailing the preparation of primary epithelial cell cultures and cytokine release studies using these cells have been described. See […], et al., "Secretion of proinflammatory cytokines by human conjunctival epithelial cells," Ocul Immunol Inflamm., 5:117-128 (1997). Briefly, cultures of human conjunctival epithelial cells were initiated from donor tissues obtained within eight hours post mortem by various eye banks. The tissues were enzymatically digested overnight. Epithelial cells were gently scraped from the tissue surface, dissociated into a single cell suspension, and cultured in keratinocyte growth medium (Clonetics® , San Diego, CA). Cells were used only through passage 6. Cultures were maintained in a preconfluent state to prevent differentiation. Cells were identified as epithelial by positive keratin staining. […] Cells were plated at 2x10^4 cells/well and cultured overnight at 5% CO2/37°C. The following day, fresh medium containing test compound was added directly to wells and the cells were incubated for 30 minutes prior to 24-hour stimulation with histamine (30 μM). Three separate culture wells were used for each treatment group. At harvest, supernatants were collected, centrifuged at 200 x g, and stored at -20°C. Samples were analyzed for IL-6 and IL-8 by ELISA (R&D Systems, Minneapolis, MN) as directed by the manufacturer. The sensitivities of each ELISA are as follows: […] The antagonist potency (IC50) was defined as the concentration of the drug required to produce 50% inhibition of the agonist-stimulated functional response. Data derived from the cytokine assays were calculated as mean and standard error (SEM) values which represent the variability among identically treated culture wells. The dose-dependent effect of pharmacological agents and IC50's were determined by linear regression. Data are expressed as mean ± S.E.M. from 3 - 5 independent experiments.

[2] = system: IL-6 Secretion in Human Conjunctival Epithelial Cells; assay: Inhibition of histamine-stimulated IL-6 secretion in cultured human conjunctival epithelial cells (ELISA); type: cell-based; conditions: for IC50: Homo sapiens, read-out: IL-6 IC50
Description: as §1

[3] = HCE cells, 30 minutes preincubation with test compound, then 24-hour stimulation with histamine (30 µM), ELISA
[4] = IL-6 and IL-8 secretion IC50 compared with H1 binding affinity
[5] = HCE exposed to 30 µM of histamine

CCOCCn1c(N2CCCN(C)CC2)nc2ccccc21 [Emedastine, 1H-Benzimidazole,1-(2-ethoxyethyl)-2-(hexahydro-4-methyl-1H-1,4-diazepin-1-yl),(E)-2-butenedioate (1:2)]
Ki (histamine H1-receptor): 0.00122 µM
IC50 [1, 3]: 0.004 µM
IC50 [2, 3]: 0.0025 µM

c1ccc(CN(CC2=NCCN2)c2ccccc2)cc1 [Antazoline, 4,5-Dihydro-N-phenyl-N-(phenylmethyl)-1 H-imidazole-2-methanamine]
Ki (histamine H1-receptor; listed as antazoline): 0.032 to 0.039 µM
Ki (histamine H1-receptor): 0.0384 µM
IC50 [1, 3]: 0.652 µM
IC50 [2, 3]: 1.01 µM
less potent inhibitors of IL-6 and IL-8 secretion than predicted from their histamine H1-receptor binding affinities [2, 4]: 20 - 140 fold

CN(C)CC/C=C1/c2ccccc2COc2ccc(CC(=O)O)cc21 [Olopatadine, Z-11-(3-Dimethylaminopropylidene)-6,11-dihydrodibenz[b,e]oxepin-2-acetic acid]
Ki (histamine H1-receptor): 0.036 µM and 0.032 to 0.039 µM
IC50 ([1]; HCE): 0.0017 µM
IC50 ([2]; HCE): 0.0055 µM
more potent as an inhibitor of cytokine secretion than predicted from binding data [2, 4]: approximately 10 fold

CN(C)CCC(c1ccccc1)c1ccccn1 (stereo not shown) [Pheniramine, N,N-Dimethyl-γ-phenyl-2-pyridine-propanamine]
Ki (histamine H1-receptor; listed as pheniramine): 0.032 to 0.039 µM
Ki (histamine H1-receptor): 0.0339 µM
IC50 [1, 3]: 1.22 µM
IC50 [2, 3]: 4.83 µM
less potent inhibitors of IL-6 and IL-8 secretion than predicted from their histamine H1-receptor binding affinities [2, 4]: 20 - 140 fold

NCCc1c[nH]cn1 [histamine]
increased IL-8 secretion [1, 5]: 1.80 ± 0.28 fold above basal levels
increased IL-6 secretion [2, 5]: 1.59 ± 0.19 fold above basal levels

C[C@@H]1CN([C@H]2CC[C@](C#N)(c3ccc(F)cc3)CC2)CC[C@]1(C(=O)O)c1ccccc1 [Levocabastine, (-)-traps-1-[cis-4-Cyano-4-(p-fluorophenyl)cyclohexyl]-3-methyl-4-phenylisonipecotic acid monohydrochloride]
Ki (histamine H1-receptor): 0.0526 µM
IC50 [1, 3]: 0.0119 µM
IC50 [2, 3]: 0.0251 µM
